From publication PMC10952895, “Assessment of the potential of novel and classical opioids to induce respiratory depression in mice” (British Journal of Pharmacology, 2023) come the findings set out here.

Molecules are shown by their SMILES.

The subject of the assay is T1, μ-receptor (μ-receptor-RLuc8).
T1 construct: gene Oprm1; construct from Gillis, Gondin et al. 2020
Nature of the assay: BRET, Nb33-Venus recruitment to μ-receptor-RLuc8 in HEK293 cells. The class given is cell-based. Conditions: agonist; 10 min after addition, normalised to DAMGO.

With `COc1ccsc1CNCC[C@@]1(c2ccccn2)CCOC2(CCCC2)C1` [oliceridine], the negative logarithm of the EC50 (pEC50) turned out to be 6.8 ± 0.1. Next, `COc1ccc2c3c1O[C@H]1C(=O)CC[C@@]4(O)[C@@H](C2)N(C)CC[C@]314` [oxycodone]: 5.8 ± 0.05; `CN1c2ccccc2C(NCCCCCCC(=O)O)c2ccc(Cl)cc2S1(=O)=O` (stereo not drawn) [tianeptine]: 5.8 ± 0.07.
